IC50 data for 70 molecules are collected here from patent US6972296B2, “Carboxylic acid derivatives that inhibit the binding of integrins to their receptors” (Encysive Pharmaceuticals Inc., priority 1999, dated 2005).

SMILES strings stand for the structures.

For the assay, the target named is T1, α4β1 integrin (Homo sapiens, UniProt P05556+P13612).
T1 construct: endogenous in cells; host or cells: Ramos cells
Nature of the assay: Adhesion of calcein-labeled Ramos cells to CS1 (fibronectin) peptide conjugated ovalbumin. In kind it is cell-based. The conditions noted are these: Ramos cell adhesion to CS1 conjugated ovalbumin. Here is the method: A procedure in which a 26-amino acid peptide containing the CS1 sequence of fibronectin with an N-terminal Cys ([…]) was coupled to maleimide activated ovalbumin was used to determine the efficacy of the compounds synthesized. Bovine serum albumin (BSA) and CS1 conjugated ovalbumin were coated onto 96-well polystyrene plates at 0.5 μg/ml in TBS (50 mM TRIS, pH 7.5; 150 mM NaCl) at 4° C. for 16 hours. The plates were washed three times with TBS and blocked with TBS containing 3% BSA at room temperature for 4 hours. Blocked plates were washed three times in binding buffer (TBS; 1 mM MgCl2; 1 mM CaCl2; 1 mM MnCl2) prior to assay. Ramos cells fluorescently labeled with calcein AM were resuspended in binding buffer (10^7 cells/ml) and diluted 1:2 with same buffer with or without compound. 100 μM of compound was added. The cells were added immediately to the wells (2.5×10^5 cells/well) and incubated for 30 minutes at 37° C. Following three washes with binding buffer, adherent cells were lysed and quantitated using a fluorometer. IC50 is defined as the dose required to give 50% inhibition, measured in μM for Tables 2 and 4. The lower the IC50 value and the greater the percentage of inhibition, the more efficient the compound is at prevention of cell adhesion.

Setting [1] is: Table 5, dose required to give 50% inhibition.

T1 sequence (P13612 34-1032): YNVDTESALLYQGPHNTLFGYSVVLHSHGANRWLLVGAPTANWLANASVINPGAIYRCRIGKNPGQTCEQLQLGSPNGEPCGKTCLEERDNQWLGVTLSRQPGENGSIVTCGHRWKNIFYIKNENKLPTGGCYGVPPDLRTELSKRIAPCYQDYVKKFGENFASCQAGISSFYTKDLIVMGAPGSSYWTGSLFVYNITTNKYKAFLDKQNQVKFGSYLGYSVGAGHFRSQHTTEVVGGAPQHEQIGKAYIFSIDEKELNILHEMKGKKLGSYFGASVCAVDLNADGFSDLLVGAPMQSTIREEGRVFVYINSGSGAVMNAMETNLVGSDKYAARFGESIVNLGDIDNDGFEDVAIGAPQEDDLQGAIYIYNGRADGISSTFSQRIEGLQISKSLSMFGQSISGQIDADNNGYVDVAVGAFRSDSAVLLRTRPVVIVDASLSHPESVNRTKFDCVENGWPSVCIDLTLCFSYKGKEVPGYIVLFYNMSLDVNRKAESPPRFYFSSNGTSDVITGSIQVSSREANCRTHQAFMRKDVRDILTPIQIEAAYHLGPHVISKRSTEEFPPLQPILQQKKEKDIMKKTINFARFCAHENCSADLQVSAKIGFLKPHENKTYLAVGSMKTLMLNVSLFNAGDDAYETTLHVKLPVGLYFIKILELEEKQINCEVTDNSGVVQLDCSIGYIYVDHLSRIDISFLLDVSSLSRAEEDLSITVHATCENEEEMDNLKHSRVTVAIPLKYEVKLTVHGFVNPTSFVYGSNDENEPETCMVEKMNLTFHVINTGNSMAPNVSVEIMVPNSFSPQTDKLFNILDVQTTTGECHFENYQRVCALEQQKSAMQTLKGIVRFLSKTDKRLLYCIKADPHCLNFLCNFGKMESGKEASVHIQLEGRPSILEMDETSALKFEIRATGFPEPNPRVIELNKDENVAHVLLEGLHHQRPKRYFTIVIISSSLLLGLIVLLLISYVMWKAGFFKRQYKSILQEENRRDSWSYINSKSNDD
T1 sequence (P05556 21-798): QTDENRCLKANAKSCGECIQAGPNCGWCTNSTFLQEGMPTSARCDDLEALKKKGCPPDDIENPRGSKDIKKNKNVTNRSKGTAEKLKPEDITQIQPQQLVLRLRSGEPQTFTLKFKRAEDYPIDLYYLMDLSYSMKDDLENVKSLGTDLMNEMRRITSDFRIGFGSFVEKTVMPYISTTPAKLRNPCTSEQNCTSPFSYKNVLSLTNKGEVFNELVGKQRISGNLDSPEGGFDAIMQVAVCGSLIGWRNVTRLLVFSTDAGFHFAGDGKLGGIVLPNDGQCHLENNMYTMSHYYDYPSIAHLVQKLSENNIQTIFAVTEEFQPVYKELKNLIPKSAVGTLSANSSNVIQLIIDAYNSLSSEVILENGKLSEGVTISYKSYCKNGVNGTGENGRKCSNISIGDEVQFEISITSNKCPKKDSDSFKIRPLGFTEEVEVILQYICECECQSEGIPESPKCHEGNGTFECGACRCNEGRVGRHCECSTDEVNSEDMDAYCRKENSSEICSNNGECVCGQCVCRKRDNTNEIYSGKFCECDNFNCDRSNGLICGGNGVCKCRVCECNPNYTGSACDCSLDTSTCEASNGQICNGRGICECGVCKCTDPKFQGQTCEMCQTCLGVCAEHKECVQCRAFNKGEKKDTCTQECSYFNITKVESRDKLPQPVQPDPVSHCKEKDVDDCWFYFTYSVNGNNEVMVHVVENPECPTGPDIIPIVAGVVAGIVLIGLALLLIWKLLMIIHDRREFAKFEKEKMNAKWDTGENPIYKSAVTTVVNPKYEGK

The IC50 is the concentration that inhibits the measured activity by half. For `O=C(O)CC(NC(=O)Nc1c(O)ccn(Cc2ccccc2Cl)c1=O)c1cccnc1` (stereo not shown), under setting [1], the IC50 is 50 nM.

On to `Cc1ccc(C(CC(=O)O)NC(=O)Nc2c(O)ccn(Cc3ccccc3Cl)c2=O)o1` (stereo not shown), for which, under setting [1], the half-maximal inhibitory concentration (IC50) is 25 nM.

For `O=C(O)CC(NC(=O)Nc1c(O)ccn(Cc2ccccc2Cl)c1=O)c1ccco1` (stereo not shown), under setting [1], the IC50 was 50 nM.

Take `Cc1ccc(N(CC(=O)O)NC(=O)Nc2c(O)ccn(Cc3ccccc3Cl)c2=O)cc1`: under setting [1], the IC50 is > 10000 nM.

In the case of `Cc1ccccc1C[C@H](CC(=O)O)NC(=O)Nc1c(O)ccn(Cc2ccccc2Cl)c1=O`, under setting [1], the concentration for half-maximal inhibition (IC50) was 80 nM.

`Cc1ccc(C[C@H](CC(=O)O)NC(=O)Nc2c(O)ccn(Cc3ccccc3Cl)c2=O)cc1`: under setting [1], the IC50 is 150 nM.

In the case of `O=C(O)C[C@@H](Cc1cccc(C(F)(F)F)c1)NC(=O)Nc1c(O)ccn(Cc2ccccc2Cl)c1=O`, under setting [1], the IC50 is 350 nM.

Take `COc1ccccc1Cn1cccc(NC(=O)N[C@@H](CC(=O)O)c2ccc3c(c2)OCO3)c1=O`: the IC50 (Table 4, 30 minutes at 37° C.) is 500 nM.

In the case of `O=C(O)C[C@H](NC(=O)Nc1cccn(Cc2ccccc2Cl)c1=O)c1ccc2c(c1)OCO2`, the IC50 (Table 4, 30 minutes at 37° C.) is 300 nM.

Consider `N#Cc1cccc(CN2CCCCC(NC(=O)N[C@@H](CC(=O)O)c3ccc4c(c3)OCO4)C2=O)c1` (stereo partly shown), for which, where the note is “Table 4, 30 minutes at 37° C.”, the IC50 is 40 nM.

`O=C(O)C[C@H](NC(=O)Nc1cccn(Cc2cc(Cl)cc(Cl)c2)c1=O)c1ccc2c(c1)OCO2`: the IC50 (Table 4, 30 minutes at 37° C.) is 5000 nM.

Consider `O=C(O)C[C@H](NC(=O)Nc1cccn(Cc2ccc(F)cc2)c1=O)c1ccc2c(c1)OCO2`, for which the IC50 (Table 4, 30 minutes at 37° C.) was 2000 nM.

Turning to `O=C(O)C[C@H](NC(=O)Nc1cccn(CCCOc2ccccc2)c1=O)c1ccc2c(c1)OCO2`, the IC50 (Table 4, 30 minutes at 37° C.) is 14000 nM.

For `COc1cccc([C@H](CC(=O)O)NC(=O)Nc2cccn(Cc3cccs3)c2=O)c1`, the IC50 (Table 4, 30 minutes at 37° C.) was 1400 nM.

Consider `Cc1ccc([C@H](CC(=O)O)NC(=O)Nc2c(O)ccn(Cc3ccccc3S(=O)(=O)N(C)C)c2=O)cc1`, for which the half-inhibitory concentration (IC50) under setting [1] is 30 nM.

Consider `Cc1ccc([C@H](CC(=O)O)NC(=O)Nc2c(O)ccn(Cc3ccccc3OC(F)F)c2=O)cc1`, for which the IC50 under setting [1] is 75 nM.

For `Cc1ccc([C@H](CC(=O)O)NC(=O)Nc2c(O)ccn(Cc3ccccc3Br)c2=O)cc1`, the 50% inhibitory concentration (IC50) under setting [1] is 15 nM.

As for `Cc1ccc([C@H](CC(=O)O)NC(=O)Nc2c(O)ccn(Cc3cc(F)ccc3Cl)c2=O)cc1`, the IC50 under setting [1] was 14 nM.

In the case of `COc1ccc(Cl)c(Cn2ccc(O)c(NC(=O)N[C@@H](CC(=O)O)c3ccc(C)cc3)c2=O)c1`, under setting [1], the IC50 is 12 nM.

Take `COc1cccc(Cl)c1Cn1ccc(O)c(NC(=O)N[C@@H](CC(=O)O)c2ccc(OC(F)(F)F)cc2)c1=O`: the concentration for half-maximal inhibition (IC50) under setting [1] was 40 nM.

On to `CCc1ccc([C@H](CC(=O)O)NC(=O)Nc2c(O)ccn(Cc3ccccc3Cl)c2=O)cc1CC`, for which the IC50 under setting [1] is 50 nM.

Consider `CCCOc1cccc([C@H](CC(=O)O)NC(=O)Nc2c(O)ccn(Cc3ccccc3Cl)c2=O)c1`, for which the 50% inhibitory concentration (IC50) under setting [1] was 3 nM.

As for `COc1c(C)cc([C@H](CC(=O)O)NC(=O)Nc2c(O)ccn(Cc3ccccc3Cl)c2=O)cc1C`, the 50% inhibitory concentration (IC50) under setting [1] is 35 nM.

Take `O=C(O)C[C@H](NC(=O)Nc1c(O)ccn(Cc2ccccc2Cl)c1=O)C(c1ccccc1)c1ccccc1`: the IC50 under setting [1] is 12000 nM.

In the case of `Cc1ccc(C)c([C@H](CC(=O)O)NC(=O)Nc2c(O)ccn(Cc3ccccc3Cl)c2=O)c1`, the IC50 under setting [1] is 50 nM.

Consider `O=C(O)C[C@H](NC(=O)Nc1c(O)ccn(Cc2ccccc2Cl)c1=O)c1cccc(OC(F)(F)F)c1`, for which the half-maximal inhibitory concentration (IC50) under setting [1] was 20 nM.

Turning to `O=C(O)C[C@H](NC(=O)Nc1c(O)ccn(Cc2ccccc2Cl)c1=O)c1ccc(F)c(C(F)(F)F)c1`, the concentration for half-maximal inhibition (IC50) under setting [1] is 25 nM.

In the case of `Cc1ccc([C@H](CC(=O)O)N(C)C(=O)Nc2c(O)ccn(Cc3ccccc3Cl)c2=O)cc1`, under setting [1], the IC50 is 400 nM.

Consider `O=C(O)C[C@H](NC(=O)Nc1c(O)ccn(Cc2ccccc2Cl)c1=O)c1cc(F)cc(F)c1`, for which the IC50 under setting [1] is 50 nM.

Regarding `Cc1ccc([C@H](CC(=O)O)NC(=O)Nc2c(O)c3c(n(Cc4ccccc4Cl)c2=O)CCCC3)cc1`, the concentration for half-maximal inhibition (IC50) under setting [1] was 20 nM.

With `Cc1ccc([C@H](CC(=O)O)NC(=O)Nc2c(O)c3c(n(Cc4ccccc4Cl)c2=O)CCCCC3)cc1`, the IC50 under setting [1] was 120 nM.

As for `CCCCCc1cn(Cc2ccccc2Cl)c(=O)c(NC(=O)N[C@@H](CC(=O)O)c2ccc(C)cc2)c1O`, under setting [1], the IC50 was 40 nM.

As for `CCc1c(O)c(NC(=O)N[C@@H](CC(=O)O)c2ccc(C)cc2)c(=O)n(Cc2ccccc2Cl)c1C`, the IC50 under setting [1] is 25 nM.

For the molecule `Cc1ccc([C@H](CC(=O)O)NC(=O)Nc2cccn(Cc3ccccc3O)c2=O)cc1`, the half-maximal inhibitory concentration (IC50) under setting [1] is 200 nM.

Turning to `COc1ccccc1Cn1cccc(NC(=O)N[C@@H](CC(=O)O)c2ccc(C)cc2)c1=O`, the IC50 under setting [1] is 250 nM.

As to `Cc1ccc([C@H](CC(=O)O)NC(=O)Nc2c(O)ccn(Cc3cccc(Cl)c3Cl)c2=O)cc1`, under setting [1], the IC50 is 130 nM.

With `Cc1ccc([C@H](CC(=O)O)NC(=O)Nc2c(O)c(C)cn(Cc3ccc(Cl)cc3Cl)c2=O)cc1`, under setting [1], the 50% inhibitory concentration (IC50) was 20 nM.

As to `Cc1ccc([C@H](CC(=O)O)NC(=O)Nc2c(O)ccn(Cc3ccc(F)cc3F)c2=O)cc1`, the half-inhibitory concentration (IC50) under setting [1] is 30 nM.

With `Cc1ccc([C@H](CC(=O)O)NC(=O)Nc2c(O)ccn(Cc3cc(C)ccc3C)c2=O)cc1`, the half-inhibitory concentration (IC50) under setting [1] is 20 nM.

On to `Cc1ccc([C@H](CC(=O)O)NC(=O)Nc2c(O)ccn(Cc3c(Cl)cccc3Cl)c2=O)cc1`, for which the IC50 under setting [1] was 13 nM.

As for `Cc1ccc([C@H](CC(=O)O)NC(=O)Nc2cccn(Cc3cccc(Cl)c3)c2=O)cc1`, the half-maximal inhibitory concentration (IC50) under setting [1] was 500 nM.

In the case of `Cc1ccc([C@H](CC(=O)O)NC(=O)Nc2c(O)ccn(Cc3cccc(Cl)c3)c2=O)cc1`, the half-maximal inhibitory concentration (IC50) under setting [1] was 15 nM.

For the molecule `Cc1ccc([C@H](CC(=O)O)NC(=O)Nc2c(O)ccn(Cc3ccc(Cl)c(Cl)c3)c2=O)cc1`, the IC50 under setting [1] was 45 nM.

Consider `Cc1ccc([C@H](CC(=O)O)NC(=O)Nc2c(O)ccn(Cc3cc(C(F)(F)F)cc(C(F)(F)F)c3)c2=O)cc1`, for which, under setting [1], the IC50 is 300 nM.

Regarding `Cc1ccc([C@H](CC(=O)O)NC(=O)Nc2c(O)ccn(Cc3cc(C)cc(C)c3)c2=O)cc1`, under setting [1], the IC50 is 60 nM.

With `Cc1ccc([C@H](CC(=O)O)NC(=O)Nc2c(O)ccn(Cc3ccc(S(=O)(=O)N(C)C)cc3)c2=O)cc1`, under setting [1], the IC50 is 35 nM.

As to `COc1cc(Cl)ccc1Cn1ccc(O)c(NC(=O)N[C@@H](CC(=O)O)c2ccc(C)cc2)c1=O`, the 50% inhibitory concentration (IC50) under setting [1] is 25 nM.

Take `CCCc1cn(Cc2ccc(Cl)cc2)c(=O)c(NC(=O)N[C@@H](CC(=O)O)c2ccc(C)cc2)c1O`: the IC50 under setting [1] was 30 nM.

In the case of `Cc1ccc([C@H](CC(=O)O)NC(=O)Nc2c(O)c(C)cn(Cc3ccc(Cl)cc3)c2=O)cc1`, under setting [1], the half-maximal inhibitory concentration (IC50) is 20 nM.

With `Cc1ccc([C@H](CC(=O)O)NC(=O)Nc2c(O)ccn(Cc3ccc(F)cc3)c2=O)cc1`, the IC50 under setting [1] is 22 nM.

With `Cc1ccc([C@H](CC(=O)O)NC(=O)Nc2c(O)ccn(Cc3ccc(C(C)(C)C)cc3)c2=O)cc1`, the IC50 under setting [1] was 30 nM.

For `Cc1ccc([C@H](CC(=O)O)NC(=O)Nc2cc(C(F)(F)F)cn(Cc3ccccc3)c2=O)cc1`, the IC50 under setting [1] is 1500 nM.

As to `O=C(O)C[C@H](NC(=O)Nc1cccn(Cc2cccs2)c1=O)c1ccccc1`, the half-maximal inhibitory concentration (IC50) (Table 4, 30 minutes at 37° C.) is 1000 nM.

For `COc1cc([C@H](CC(=O)O)NC(=O)Nc2cccn(Cc3cccs3)c2=O)cc(OC)c1OC`, the half-maximal inhibitory concentration (IC50) (Table 4, 30 minutes at 37° C.) is 300 nM.

`CSc1ccccc1Cn1ccc(O)c(NC(=O)N[C@@H](CC(=O)O)c2ccc(C)cc2)c1=O`: the IC50 under setting [1] was 20 nM.

With `Cc1ccc([C@H](CC(=O)O)NC(=O)Nc2c(O)ccn(Cc3ccccc3C)c2=O)cc1`, under setting [1], the IC50 is 20 nM.

For the molecule `COc1cccc(Cn2ccc(O)c(NC(=O)N[C@@H](CC(=O)O)c3ccc(C)cc3)c2=O)c1`, under setting [1], the IC50 was 40 nM.

For `Cc1ccc([C@H](CC(=O)O)NC(=O)Nc2c(O)ccn(Cc3cccc(C)c3)c2=O)cc1`, the IC50 under setting [1] is 55 nM.

Consider `COc1ccc(Cn2ccc(O)c(NC(=O)N[C@@H](CC(=O)O)c3ccc(C)cc3)c2=O)cc1`, for which, under setting [1], the half-inhibitory concentration (IC50) was 20 nM.

Regarding `Cc1ccc(Cn2ccc(O)c(NC(=O)N[C@@H](CC(=O)O)c3ccc(C)cc3)c2=O)cc1`, the concentration for half-maximal inhibition (IC50) under setting [1] was 25 nM.

Consider `Cc1ccc([C@H](CC(=O)O)NC(=O)Nc2c(O)ccn(Cc3c(C)cc(C)cc3C)c2=O)cc1`, for which, under setting [1], the IC50 was 60 nM.

Take `Cc1ccc([C@H](CC(=O)O)NC(=O)Nc2c(O)ccn(Cc3ccccc3OC(F)(F)F)c2=O)cc1`: under setting [1], the IC50 was 25 nM.

For the molecule `Cc1ccc([C@H](CC(=O)O)NC(=O)Nc2c(O)ccn(Cc3ccccc3C(F)(F)F)c2=O)cc1`, the IC50 under setting [1] is 20 nM.

On to `Cc1ccc([C@H](CC(=O)O)NC(=O)Nc2c(O)ccn(Cc3cccc(OC(F)(F)F)c3)c2=O)cc1`, for which the IC50 under setting [1] is 45 nM.

`Cc1ccc([C@H](CC(=O)O)NC(=O)Nc2c(O)ccn(Cc3cccc(C(F)(F)F)c3)c2=O)cc1`: under setting [1], the IC50 was 17 nM.

As to `Cc1ccc([C@H](CC(=O)O)NC(=O)Nc2c(O)ccn(Cc3ccc(OC(F)(F)F)cc3)c2=O)cc1`, the IC50 under setting [1] was 25 nM.

For the molecule `Cc1ccc([C@H](CC(=O)O)NC(=O)Nc2c(O)ccn(Cc3ccc(C(F)(F)F)cc3)c2=O)cc1`, the half-maximal inhibitory concentration (IC50) under setting [1] is 20 nM.

In the case of `Cc1ccc([C@H](CC(=O)O)NC(=O)Nc2c(O)c(C)cn(Cc3ccc(S(C)(=O)=O)cc3)c2=O)cc1`, the half-inhibitory concentration (IC50) under setting [1] was 20 nM.

Consider `Cc1ccc([C@H](CC(=O)O)NC(=O)Nc2c(O)c(C)cn([C@H](C)c3ccccc3)c2=O)cc1`, for which, under setting [1], the half-inhibitory concentration (IC50) was 4000 nM.

For the molecule `CCCCc1cn(Cc2ccccc2Cl)c(=O)c(NC(=O)N[C@@H](CC(=O)O)c2ccc(C)cc2)c1O`, the concentration for half-maximal inhibition (IC50) under setting [1] is 25 nM.
